For 26 molecules, IC50 results are on record in patent publication US8962671B2, “Amino-substituted 3-heteroaroylamino-propionic acid derivatives and their use as pharmaceuticals” (Sanofi, priority 2011, dated 2015).

Each structure is given as a SMILES string.

For orientation: IC50 means the point on the concentration scale where inhibition reaches its midpoint.

In this assay the target is T1, Recombinant human cathepsin A (Homo sapiens, UniProt P10619).
T1 construct: Recombinant human cathepsin A (residues 29-480, with a C-terminal 10-His tag); 10-His (C); purchased R&D Systems 1049-SE
T1 sequence (P10619 29-326 limits assumed): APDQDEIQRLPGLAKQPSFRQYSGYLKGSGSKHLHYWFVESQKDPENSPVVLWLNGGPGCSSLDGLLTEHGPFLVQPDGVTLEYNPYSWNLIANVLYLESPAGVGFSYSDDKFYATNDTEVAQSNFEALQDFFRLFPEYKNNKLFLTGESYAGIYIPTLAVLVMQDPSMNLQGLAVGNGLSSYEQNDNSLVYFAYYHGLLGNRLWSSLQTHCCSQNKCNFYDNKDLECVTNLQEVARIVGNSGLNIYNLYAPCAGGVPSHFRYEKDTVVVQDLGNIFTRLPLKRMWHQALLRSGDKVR
T1 sequence (P10619 327-480 limits assumed): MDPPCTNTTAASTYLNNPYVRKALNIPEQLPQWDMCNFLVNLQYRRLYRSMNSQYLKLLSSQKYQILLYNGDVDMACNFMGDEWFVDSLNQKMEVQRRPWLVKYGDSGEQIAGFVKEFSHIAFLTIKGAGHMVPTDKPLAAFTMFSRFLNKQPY
Kind of assay: Cathepsin A inhibitory activity. The class given is biochemical. Conditions: activated recombinant human cathepsin A 833 ng/ml, Bodipy FL-labeled bradykinin 2 μM, pH 5.5, 15 min room temperature. Here is the method:
a) Cathepsin a Inhibitory Activity
Recombinant human cathepsin A (residues 29-480, with a C-terminal 10-His tag; R&D Systems, #1049-SE) was proteolytically activated with recombinant human cathepsin L (R&D Systems, #952-CY). Briefly, cathepsin A was incubated at 10 μg/ml with cathepsin L at 1 μg/ml in activation buffer (25 mM 2-(morpholin-4-yl)-ethanesulfonic acid (MES), pH 6.0, containing 5 mM dithiothreitol (DTT)) for 15 min at 37° C. Cathepsin L activity was then stopped by the addition of the cysteine protease inhibitor E-64 (N-(trans-epoxysuccinyl)-L-leucine-4-guanidinobutylamide; Sigma-Aldrich, #E3132; dissolved in activation buffer/DMSO) to a final concentration of 10 μM.
The activated cathepsin A was diluted in assay buffer (25 mM MES, pH 5.5, containing 5 mM DTT) and mixed with the test compound (dissolved in assay buffer containing (v/v) 3% DMSO) or, in the control experiments, with the vehicle in a multiple assay plate. After incubation for 15 min at room temperature, as substrate then bradykinin carrying an N-Terminal®Bodipy FL (4,4-difluoro-5,7-dimethyl-4-bora-3a,4a-diaza-s-indacene-3-propionyl) label (JPT Peptide Technologies GmbH; dissolved in assay buffer) was added to the mixture. The final concentration of cathepsin A was 833 ng/ml and the final concentration of labeled bradykinin 2 μM. After incubation for 15 min at room temperature the reaction was stopped by the addition of stop buffer (130 mM 2-(4-(2-hydroxy-ethyl)-piperazin-1-yl)-ethanesulfonic acid, pH 7.4, containing (v/v) 0.013%®Triton X-100, 0.13% Coating Reagent 3 (Caliper Life Sciences), 6.5% DMSO and 20 μM ebelactone B (Sigma, #E0886)).
Uncleaved substrate and product were then separated by a microfluidic capillary electrophoresis on a LabChip® 3000 Drug Discovery System (12-Sipper-Chip; Caliper Life Sciences) and quantified by determination of the respective peak areas. Substrate turnover was calculated by dividing product peak area by the sum of substrate and product peak areas, and the enzyme activity and the inhibitory effect of the test compound thus quantified. From the percentage of inhibition of cathepsin A activity observed with the test compound at several concentrations, the inhibitory concentration IC50, i.e. the concentration which effects 50% inhibition of enzyme activity was, calculated.
Regarding `O=C(O)CC(NC(=O)c1cc2[nH]c3ccccc3n2n1)c1cc(F)ccc1Cl` (centres unmarked) [Example 32, 3-[(4H-Benzo[4,5]imidazo[1,2-b]pyrazole-2-carbonyl)-amino]-3-(2-chloro-5-fluoro-phenyl)-propionic acid], the concentration for half-maximal inhibition (IC50) turned out to be 664 nM.
As to `O=C(O)CC(NC(=O)c1cc2[nH]c3ccccc3n2n1)c1cc(F)ccc1F` (centres unmarked) [Example 33, 3-[(4H-Benzo[4,5]imidazo[1,2-b]pyrazole-2-carbonyl)-amino]-3-(2,5-difluoro-phenyl)-propionic acid], the IC50 was 2670 nM.
The result for `O=C(O)CC(NC(=O)c1cc2[nH]c3ccccc3n2n1)c1ccc(F)cc1` (centres unmarked) [Example 34, 3-[(4H-Benzo[4,5]imidazo[1,2-b]pyrazole-2-carbonyl)-amino]-3-(4-fluoro-phenyl)-propionic acid] reads 2520 nM.
In the case of `Cc1ccccc1C(CC(=O)O)NC(=O)c1cc2[nH]c3ccccc3n2n1` (centres unmarked) [Example 35, 3-[(4H-Benzo[4,5]imidazo[1,2-b]pyrazole-2-carbonyl)-amino]-3-o-tolyl-propionic acid], the IC50 was determined as 900 nM.
Next, `N#Cc1cccc([C@H](CC(=O)O)NC(=O)c2cc3[nH]c4ccccc4n3n2)c1` [Example 37, (S)-3-[(4H-Benzo[4,5]imidazo[1,2-b]pyrazole-2-carbonyl)-amino]-3-(3-cyano-phenyl)-propionic acid]: 3570 nM.
The result for `Cc1ccccc1[C@H](CC(=O)O)NC(=O)c1cc2[nH]c3ccccc3n2n1` [Example 38, (S)-3-[(4H-Benzo[4,5]imidazo[1,2-b]pyrazole-2-carbonyl)-amino]-3-o-tolyl-propionic acid] reads 219 nM.
Next, `Cc1cccc([C@H](CC(=O)O)NC(=O)c2cc3[nH]c4ccccc4n3n2)c1` [Example 39, (S)-3-[(4H-Benzo[4,5]imidazo[1,2-b]pyrazole-2-carbonyl)-amino]-3-m-tolyl-propionic acid]: 940 nM; `O=C(O)C[C@H](NC(=O)c1cc2[nH]c3ccccc3n2n1)c1ccccc1F` [Example 40, (S)-3-[(4H-Benzo[4,5]imidazo[1,2-b]pyrazole-2-carbonyl)-amino]-3-(2-fluoro-phenyl)-propionic acid]: 1170 nM.
Take `O=C(O)C[C@H](NC(=O)c1cc2[nH]c3ccccc3n2n1)c1ccccc1` [Example 41, (S)-3-[(4H-Benzo[4,5]imidazo[1,2-b]pyrazole-2-carbonyl)-amino]-3-phenyl-propionic acid]: the IC50 is 1230 nM.
The result for `CC(C)(CC(=O)O)NC(=O)c1cc2[nH]c3ccccc3n2n1` [Example 43, 3-[(4H-Benzo[4,5]imidazo[1,2-b]pyrazole-2-carbonyl)-amino]-3-methyl-butyric acid] reads 5180 nM; that for `O=C(O)C[C@H](NC(=O)c1cc2[nH]c3ccccc3n2n1)c1ccccc1Cl` [Example 49, (S)-3-[(4H-Benzo[4,5]imidazo[1,2-b]pyrazole-2-carbonyl)-amino]-3-(2-chloro-phenyl)-propionic acid], 392 nM.
With `Cc1ccccc1[C@H](CC(=O)O)NC(=O)c1cc(NCC2CC2)n(-c2ccccc2)n1` [Example 50, (S)-3-{[5-(Cyclopropylmethyl-amino)-1-phenyl-1H-pyrazole-3-carbonyl]-amino}-3-o-tolyl-propionic acid], the IC50 stood at 49 nM.
The result for `Cc1ccccc1[C@H](CC(=O)O)NC(=O)c1cc(N(CC2CC2)CC2CC2)n(-c2ccccc2)n1` [Example 51, (S)-3-{[5-(Bis-cyclopropylmethyl-amino)-1-phenyl-1H-pyrazole-3-carbonyl]-amino}-3-o-tolyl-propionic acid] reads 524 nM; that for `Cc1ccccc1[C@H](CC(=O)O)NC(=O)c1cc(NC(=O)C(C)(C)C)n(-c2ccccc2)n1` [Example 52, (S)-3-{[5-(2,2-Dimethyl-propionylamino)-1-phenyl-1H-pyrazole-3-carbonyl]-amino}-3-o-tolyl-propionic acid], 28.6 nM.
The result for `CC(C)(C)C(=O)Nc1cc(C(=O)N[C@@H](CC(=O)O)c2ccc(Cl)cc2Cl)nn1-c1ccccc1` [Example 53, (S)-3-(2,4-Dichloro-phenyl)-3-{[5-(2,2-dimethyl-propionylamino)-1-phenyl-1H-pyrazole-3-carbonyl]-amino}-propionic acid] reads 27.1 nM; that for `CC(C)(C)C(=O)Nc1cc(C(=O)N[C@@H](CC(=O)O)c2ccccc2Cl)nn1-c1ccccc1` [Example 54, (S)-3-(2-Chloro-phenyl)-3-{[5-(2,2-dimethyl-propionylamino)-1-phenyl-1H-pyrazole-3-carbonyl]-amino}-propionic acid], 31.3 nM.
The result for `Cc1ccccc1[C@H](CC(=O)O)NC(=O)c1cc(N(C)C(=O)C(C)(C)C)n(-c2ccccc2)n1` [Example 55, (S)-3-({5-[(2,2-Dimethyl-propionyl)-methyl-amino]-1-phenyl-1H-pyrazole-3-carbonyl}-amino)-3-o-tolyl-propionic acid] reads 17.5 nM; that for `Cc1ccccc1[C@H](CC(=O)O)NC(=O)c1cc(NCC(=O)C(C)(C)C)n(-c2ccccc2)n1` [Example 56, (S)-3-{[5-(3,3-Dimethyl-2-oxo-butylamino)-1-phenyl-1H-pyrazole-3-carbonyl]-amino}-3-o-tolyl-propionic acid], 16.1 nM.
In the case of `Cc1ccccc1[C@H](CC(=O)O)NC(=O)c1cc(NCC(O)C(C)(C)C)n(-c2ccccc2)n1` (stereo partly drawn) [Example 57, (S)-3-{[5-(2-Hydroxy-3,3-dimethyl-butylamino)-1-phenyl-1H-pyrazole-3-carbonyl]-amino}-3-o-tolyl-propionic acid], the concentration for half-maximal inhibition (IC50) came to 12.1 nM.
Next, `Cc1ccccc1[C@H](CC(=O)O)NC(=O)c1cc(NCC(C)(O)C(C)(C)C)n(-c2ccccc2)n1` (stereo partly drawn) [Example 58, (S)-3-{[5-(2-Hydroxy-2.3,3-trimethyl-butylamino)-1-phenyl-1H-pyrazole-3-carbonyl]-amino}-3-o-tolyl-propionic acid]: 38.5 nM; `Cc1ccc(C(=O)Nc2cc(C(=O)N[C@@H](CC(=O)O)c3ccccc3C)nn2-c2ccccc2)o1` [Example 61, (S)-3-({5-[(5-Methyl-furan-2-carbonyl)-amino]-1-phenyl-1H-pyrazole-3-carbonyl}-amino)-3-o-tolyl-propionic acid]: 62.6 nM.
`Cc1ccc(C(=O)Nc2cc(C(=O)N[C@@H](CC(=O)O)c3ccc(Cl)cc3Cl)nn2-c2ccccc2)o1` [Example 62, (S)-3-(2,4-Dichloro-phenyl)-3-({5-[(5-methyl-furan-2-carbonyl)-amino]-1-phenyl-1H-pyrazole-3-carbonyl}-amino)-propionic acid]: the IC50 stood at 175 nM.
The result for `Cc1ccccc1[C@H](CC(=O)O)NC(=O)c1cc(N(C)C(=O)c2ccccc2)n(-c2ccccc2)n1` [Example 63, (S)-3-{[5-(Benzoyl-methyl-amino)-1-phenyl-1H-pyrazole-3-carbonyl]-amino}-3-o-tolyl-propionic acid] reads 57.2 nM; that for `CN(C(=O)c1ccccc1)c1cc(C(=O)N[C@@H](CC(=O)O)c2ccc(Cl)cc2Cl)nn1-c1ccccc1` [Example 64, (S)-3-{[5-(Benzoyl-methyl-amino)-1-phenyl-1H-pyrazole-3-carbonyl]-amino}-3-(2,4-dichloro-phenyl)-propionic acid], 64.7 nM; that for `Cc1ccccc1[C@H](CC(=O)O)NC(=O)c1cc(N(C)CC(O)C(C)(C)C)n(-c2ccccc2)n1` (stereo partly drawn) [Example 65, (S)-3-({5-[(2-Hydroxy-3,3-dimethyl-butyl)-methyl-amino]-1-phenyl-1H-pyrazole-3-carbonyl}-amino)-3-o-tolyl-propionic acid], 78.3 nM.
The result for `Cc1ccccc1[C@H](CC(=O)O)NC(=O)c1cc(NC(=O)c2ccccc2)n(-c2ccccc2)n1` [Example 66, (S)-3-[(5-Benzoylamino-1-phenyl-1H-pyrazole-3-carbonyl)-amino]-3-o-tolyl-propionic acid] reads 30.1 nM.
